Results as given in article PMC4167698, “Fatty Acid Esters of Phloridzin Induce Apoptosis of Human Liver Cancer Cells through Altered Gene Expression” (PLoS ONE, 2014).

Legend:
HepG2 cells [1] = assay: LDH release cytotoxicity assay; assay type: cell-based, human; settings: HepG2, 100 µM, 6 h, relative to maximum release by 1% Triton X-100
Experimental: Lactate dehydrogenase (LDH) is a stable cytosolic enzyme that is released upon membrane damage in apoptotic/necrotic cells. LDH activity was measured using CytoTox 96 Non-Radioactive Cytotoxicity Assay (Promega, Madison, WI, USA), in which LDH released in culture supernatants is measured with a coupled enzymatic assay, resulting in conversion of a tetrazolium salt into a red formazan product. […] After centrifugation, the supernatant was removed to an assay plate, and the LDH released from the cells into culture medium was measured. The maximal release was obtained after treating control cells with 1% Triton X-100 for 30 min at room temperature. The apoptotic/necrotic percentage was expressed using the formula: (sample value/maximal release)×100%.

HepG2 cells [2] = assay: Annexin V/7-AAD apoptosis/necrosis fluorescence microscopy; assay type: cell-based, human; settings: HepG2, 100 µM, 24 h
Experimental: HepG2 cells were seeded into Nunc Lab-Tek two chamber slide (Sigma-Aldrich Canada) at a density of 1×10^6 cells/chamber. […] The slides were washed with diluted phosphate buffered saline. After removing the chamber, each slide was added with 50 µL of Dual Detection Reagent containing apoptosis detection reagent (Annexin V-EnzoGold) and necrosis detection reagent (7-AAD) in 1X binding buffer. The samples were incubated at room temperature for 15 min in the dark. After staining, the cells were washed with binding buffer and covered with a glass coverslip. The stained cells were observed under a fluorescence Zeiss Axiovert 200 m inverted microscope (Carl Zeiss, Toronto, ON, Canada) at magnification of ×40 with a filter set for Annexin V-EnzoGold (Ex/Em: 550/570 nm) and 7-AAD (Ex/Em: 546/647 nm).

HepG2 cells [3] = assay: Mitochondrial membrane potential (JC-1); assay type: cell-based, human; settings: HepG2, 100 µM, 24 h
Experimental: HepG2 cells were seeded in a black walled clear bottom 96-well sterile flat bottom tissue culture plates (BD Biosciences, USA) at a density of 5×10^4 cells/well (100 µL) and incubated in a CO2 incubator for 24 h at 37°C. […] The staining solution JC-1 was prepared with PBS and 5 µM was added to each well. The cells were further incubated in a CO2 incubator at 37°C for 1 h. After washing the plate with PBS twice, the fluorescence was measured using a Fluostar Optima microplate reader (BMG Labtech) at 535 nm for JC-1 monomers and at 590 nm for JC-1 aggregates.

[4] = tested on: LNCaP prostate cancer cells; set-up: method as in PMID 20714300; settings: 100 µM; cited from earlier work
DNA topo IIα = tested on: DNA topo IIα; set-up: method as in PMID 7769390; settings: cited from earlier work
[5] = tested on: normal human hepatocytes (HP-F); assay: MTS cell viability assay, normal human hepatocytes; assay type: cell-based; settings: Hepatocyte, 24 h
Method in brief: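 MTS read-out (OD490, 3 h with PMS) after 3, 6, 12, 18 or 24 h exposure to 0.1–100 µM compound; HepG2 and MDA-MB-231 at 5×10^3 cells/well, human and rat hepatocytes at 1×10^4 cells/well, triplicate.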

HepG2 cells [6] = assay: Morphologic observation under inverted phase contrast microscope; assay type: cell-based, human; settings: HepG2, 100 µM, 24 h
Experimental: After 24 h of treatment, the morphology of HepG2 cells was observed under an inverted phase contrast microscope (Nikon Eclipse E 100, Nikon, Mississauga, ON, Canada) and were captured at 400X magnification using Infinity digital microscopy camera (Lumenera corporation, Ottawa, ON, Canada).

[7] = glycosylation at 2-OH; cited from earlier work
B16 mouse melanoma cells = tested on: B16 mouse melanoma cells; set-up: method as in PMID 17827407; settings: antitumor activity study of apple polyphenols; cited from earlier work
[8] = tested on: BALB-MC.E12 mouse mammary tumor cells; set-up: method as in PMID 17827407; settings: antitumor activity study of apple polyphenols; cited from earlier work

SMILES | LDH release (HepG2 cells [1]) | apoptosis/necrosis by Annexin V/7-AAD staining (HepG2 cells [2]) | mitochondrial membrane potential (HepG2 cells [3]) | TRAIL-induced apoptosis and cytotoxicity [4] | DNA topo IIα unknotting activity (DNA topo IIα) | EC50 [5] | apoptotic morphological changes (HepG2 cells [6]) | decrease of antioxidant activities in comparison to phloretin [7] | proliferation of transplanted B16 mouse melanoma cells (B16 mouse melanoma cells) | proliferation of BALB-MC.E12 mouse mammary tumor cells [8]
O=C(CCc1ccc(O)cc1)c1c(O)cc(O)cc1O [Phloretin] | 7.9±0.5% | less apoptotic death of cells | significant (P<0.05) reduction | augmented | inhibit DNA topo IIα unknotting activity |  |  |  |  | 
O=C(CCc1ccc(O)cc1)c1c(O)cc(O)cc1O[C@@H]1O[C@H](CO)[C@@H](O)[C@H](O)[C@H]1O [Phloridzin, phloretin 2′-O-glucoside] |  | less apoptotic death of cells |  |  |  | > 100 µM | no effect | 18 times | did not affect the proliferation | did not affect the proliferation
